We go through 25 molecules from patent publication US10259808B2 (Genentech, Inc., priority 2015, dated 2019).

Molecules are shown by their SMILES.

In this assay the target is T1, RORc ligand binding domain (Homo sapiens, UniProt P51449).
T1 sequence (P51449 269-508 limits assumed): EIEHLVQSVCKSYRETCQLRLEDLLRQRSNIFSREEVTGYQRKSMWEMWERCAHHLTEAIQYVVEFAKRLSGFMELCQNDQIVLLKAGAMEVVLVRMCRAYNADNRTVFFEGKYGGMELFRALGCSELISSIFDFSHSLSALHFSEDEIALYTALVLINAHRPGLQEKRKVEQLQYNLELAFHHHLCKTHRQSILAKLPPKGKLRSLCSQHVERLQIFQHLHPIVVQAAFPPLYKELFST
Put plainly: In vitro RORc ligand binding assay (25-[3H]hydroxycholesterol displacement).
`C[C@H]1CC[C@H](c2ccccc2)S(=O)(=O)N1Cc1cc(F)c([C@]2(c3nnc[nH]3)C[C@@H](O)C2)cc1F` [Example 115, 3-[2,5-difluoro-4-[[(3S,6R)-3-methyl-1,1-dioxo-6-phenyl-thiazinan-2-yl]methyl]phenyl]-3-(4H-1,2,4-triazol-3-yl)cyclobutanol]: the concentration for half-maximal inhibition (IC50) – broadly, the concentration that inhibits the measured activity by half – is 7.8 nM.
`C[C@H]1CC[C@H](c2ccccc2)S(=O)(=O)N1Cc1cc(F)c([C@]2(c3nnc[nH]3)C[C@H](O)C2)cc1F` [Example 116, 3-[2,5-difluoro-4-[[(3S,6R)-3-methyl-1,1-dioxo-6-phenyl-thiazinan-2-yl]methyl]phenyl]-3-(4H-1,2,4-triazol-3-yl)cyclobutanol] gave an IC50 of 37.9 nM.
As for `C[C@H]1CC[C@H](c2ccccc2)S(=O)(=O)N1Cc1cc(F)c(C2(N3CC(=O)NC3=O)COC2)cc1F` [Example 117, 1-[3-[2,5-difluoro-4-[[(3S,6R)-3-methyl-1,1-dioxo-6-phenyl-thiazinan-2-yl]methyl]phenyl]oxetan-3-yl]imidazolidine-2,4-dione], the figure is 25.9 nM; as for `C[C@H]1CC[C@H](c2ccccc2)S(=O)(=O)N1Cc1cc(F)c(C2(Nc3cnccn3)CCOCC2)cc1F` [Example 118, N-[4-[2,5-difluoro-4-[[(3S,6R)-3-methyl-1,1-dioxo-6-phenyl-thiazinan-2-yl]methyl]phenyl]tetrahydropyran-4-yl]pyrazin-2-amine], 5.2 nM; as for `C[C@H]1CC[C@H](c2ccccc2)S(=O)(=O)N1Cc1cc(F)c(C2(c3n[nH]c(=O)o3)CC(=O)C2)cc1F` [Example 119, 5-[1-[2,5-difluoro-4-[[(3S,6R)-3-methyl-1,1-dioxo-6-phenyl-thiazinan-2-yl]methyl]phenyl]-3-oxo-cyclobutyl]-3H-1,3,4-oxadiazol-2-one], 1.8 nM.
As for `COC1(OC)CC(c2n[nH]c(=O)o2)(c2cc(F)c(CN3[C@@H](C)CC[C@H](c4ccccc4)S3(=O)=O)cc2F)C1` [Example 120, 5-[1-[2,5-difluoro-4-[[(3S,6R)-3-methyl-1,1-dioxo-6-phenyl-thiazinan-2-yl]methyl]phenyl]-3,3-dimethoxy-cyclobutyl]-3H-1,3,4-oxadiazol-2-one], the figure is 5.7 nM; as for `C[C@H]1CC[C@H](c2ccccc2)S(=O)(=O)N1Cc1cc(F)c(C2(c3n[nH]c(=O)o3)CC2)cc1F` [Example 121, 5-[1-[2,5-difluoro-4-[[(3S,6R)-3-methyl-1,1-dioxo-6-phenyl-thiazinan-2-yl]methyl]phenyl]cyclopropyl]-3H-1,3,4-oxadiazol-2-one], 19.5 nM.
As for `C[C@H]1CC[C@H](c2ccccc2)S(=O)(=O)N1Cc1cc(F)c(C2(OCc3nnc[nH]3)CC3(COC3)C2)cc1F` [Example 122, (3S,6R)-2-[[2,5-difluoro-4-[6-(4H-1,2,4-triazol-3-ylmethoxy)-2-oxaspiro[3.3]heptan-6-yl]phenyl]methyl]-3-methyl-6-phenyl-thiazinane 1,1-dioxide], the half-inhibitory concentration (IC50) is 2.7 nM.
Regarding `C[C@H]1CC[C@H](c2ccccc2)S(=O)(=O)N1Cc1cc(F)c([C@]2(c3n[nH]c(=O)o3)C[C@H](O)C2)cc1F` [Example 123, trans-5-[1-[2,5-difluoro-4-[[(3S,6R)-3-methyl-1,1-dioxo-6-phenyl-thiazinan-2-yl]methyl]phenyl]-3-hydroxy-cyclobutyl]-3H-1,3,4-oxadiazol-2-one], the 50% inhibitory concentration (IC50) stood at 1.8 nM.
As for `C[C@H]1CC[C@H](c2ccccc2)S(=O)(=O)N1Cc1cc(F)c([C@]2(c3n[nH]c(=O)o3)C[C@@H](O)C2)cc1F` [Example 124, cis-5-[1-[2,5-difluoro-4-[[(3S,6R)-3-methyl-1,1-dioxo-6-phenyl-thiazinan-2-yl]methyl]phenyl]-3-hydroxy-cyclobutyl]-3H-1,3,4-oxadiazol-2-one], the figure is 2.1 nM; as for `C[C@H]1CC[C@H](c2ccccc2)S(=O)(=O)N1Cc1cc(F)c(C2(NCC3COC(=O)N3)COC2)cc1F` (stereo partly drawn) [Example 125, 4-[[[3-[2,5-difluoro-4-[[(3S,6R)-3-methyl-1,1-dioxo-6-phenyl-thiazinan-2-yl]methyl]phenyl]oxetan-3-yl]amino]methyl]oxazolidin-2-one], 56.6 nM.
In turn, `C[C@H]1CC[C@H](c2ccccc2)S(=O)(=O)N1Cc1cc(F)c(C2(c3n[nH]c(=O)o3)CC(F)(F)C2)cc1F` [Example 126, 5-[1-[2,5-difluoro-4-[[(3S,6R)-3-methyl-1,1-dioxo-6-phenyl-thiazinan-2-yl]methyl]phenyl]-3,3-difluoro-cyclobutyl]-3H-1,3,4-oxadiazol-2-one] returned a concentration for half-maximal inhibition (IC50) of 2.7 nM.
With `C[C@H]1CC[C@H](c2ccccc2)S(=O)(=O)N1Cc1cc(F)c([C@]2(c3n[nH]c(=O)o3)C[C@@](C)(O)C2)cc1F` [Example 127, cis-5-[1-[2,5-difluoro-4-[[(3S,6R)-3-methyl-1,1-dioxo-6-phenyl-thiazinan-2-yl]methyl]phenyl]-3-hydroxy-3-methyl-cyclobutyl]-3H-1,3,4-oxadiazol-2-one], the half-inhibitory concentration (IC50) worked out at 7.2 nM.
As for `C[C@H]1CC[C@H](c2ccccc2)S(=O)(=O)N1Cc1cc(F)c([C@]2(c3n[nH]c(=O)o3)C[C@](C)(O)C2)cc1F` [Example 128, trans-5-[1-[2,5-difluoro-4-[[(3S,6R)-3-methyl-1,1-dioxo-6-phenyl-thiazinan-2-yl]methyl]phenyl]-3-hydroxy-3-methyl-cyclobutyl]-3H-1,3,4-oxadiazol-2-one], the figure is 3.4 nM.
As for `C[C@H]1CC[C@H](c2ccccc2)S(=O)(=O)N1Cc1cc(F)c(C2(c3nnc(N)o3)CC(F)(F)C2)cc1F` [Example 132, 5-[1-[2,5-difluoro-4-[[(3S,6R)-3-methyl-1,1-dioxo-6-phenyl-thiazinan-2-yl]methyl]phenyl]-3,3-difluoro-cyclobutyl]-1,3,4-oxadiazol-2-amine], the figure is 12.8 nM; as for `Cc1nn(C)cc1CNC1(c2cc(F)c(CN3[C@@H](C)CC[C@H](c4ccccc4)S3(=O)=O)cc2F)COC1` [Example 135, 3-[2,5-difluoro-4-[[(3S,6R)-3-methyl-1,1-dioxo-6-phenyl-thiazinan-2-yl]methyl]phenyl]-N-[(1,3-dimethylpyrazol-4-yl)methyl]oxetan-3-amine], 201 nM.
As for `C[C@H]1CC[C@H](c2ccccc2)S(=O)(=O)N1Cc1cc(F)c(C2(NCC3CCOC3)COC2)cc1F` (stereo partly drawn) [Example 136, 3-[2,5-difluoro-4-[[(3S,6R)-3-methyl-1,1-dioxo-6-phenyl-thiazinan-2-yl]methyl]phenyl]-N-(tetrahydrofuran-3-ylmethyl)oxetan-3-amine], the figure is 23.9 nM.
As for `C[C@H]1CC[C@H](c2ccccc2)S(=O)(=O)N1Cc1cc(F)c(C2(NCc3ccnn3C)COC2)cc1F` [Example 137, 3-[2,5-difluoro-4-[[(3S,6R)-3-methyl-1,1-dioxo-6-phenyl-thiazinan-2-yl]methyl]phenyl]-N-[(2-methylpyrazol-3-yl)methyl]oxetan-3-amine], the IC50 worked out at 89.4 nM.
As for `C[C@H]1CC[C@H](c2ccccc2)S(=O)(=O)N1Cc1cc(F)c(C2(NCc3cnn(C)c3)COC2)cc1F` [Example 138, 3-[2,5-difluoro-4-[[(3S,6R)-3-methyl-1,1-dioxo-6-phenyl-thiazinan-2-yl]methyl]phenyl]-N-[(1-methylpyrazol-4-yl)methyl]oxetan-3-amine], the figure is 69.4 nM; as for `C[C@H]1CC[C@H](c2ccccc2)S(=O)(=O)N1Cc1cc(F)c([C@]2(c3n[nH]c(=O)o3)C[C@](C)(F)C2)cc1F` [Example 139, trans 5-[1-[2,5-difluoro-4-[[(3S,6R)-3-methyl-1,1-dioxo-6-phenyl-thiazinan-2-yl]methyl]phenyl]-3-fluoro-3-methyl-cyclobutyl]-3H-1,3,4-oxadiazol-2-one], 3.9 nM.
As for `C[C@H]1CC[C@H](c2ccccc2)S(=O)(=O)N1Cc1cc(F)c(C2(c3nn(C)c(=O)o3)CCOCC2)cc1F` [Example 140, 5-[4-[2,5-difluoro-4-[[(3S,6R)-3-methyl-1,1-dioxo-6-phenyl-thiazinan-2-yl]methyl]phenyl]tetrahydropyran-4-yl]-3-methyl-1,3,4-oxadiazol-2-one], the figure is 12.8 nM; as for `C[C@H]1CC[C@H](c2ccccc2)S(=O)(=O)N1Cc1cc(F)c([C@]2(c3n[nH]c(=O)o3)C[C@](O)(C3CC3)C2)cc1F` [Example 141, cis 5-[3-cyclopropyl-1-[2,5-difluoro-4-[[(3S,6R)-3-methyl-1,1-dioxo-6-phenyl-thiazinan-2-yl]methyl]phenyl]-3-hydroxy-cyclobutyl]-3H-1,3,4-oxadiazol-2-one], 9.2 nM.
As for `C[C@H]1CC[C@H](c2ccccc2)S(=O)(=O)N1Cc1cc(F)c([C@]2(c3n[nH]c(=O)o3)C[C@@](O)(C3CC3)C2)cc1F` [Example 142, trans 5-[3-cyclopropyl-1-[2,5-difluoro-4-[[(3S,6R)-3-methyl-1,1-dioxo-6-phenyl-thiazinan-2-yl]methyl]phenyl]-3-hydroxy-cyclobutyl]-3H-1,3,4-oxadiazol-2-one], the figure is 4.3 nM; as for `C[C@H]1CC[C@@H](c2ccccc2)S(=O)(=O)N1Cc1cc(F)c(C2(c3n[nH]c(=O)o3)CCC2)cc1F` [Example 143, 5-[1-[2,5-difluoro-4-[[(3S,6S)-3-methyl-1,1-dioxo-6-phenyl-thiazinan-2-yl]methyl]phenyl]cyclobutyl]-3H-1,3,4-oxadiazol-2-one], 151 nM.
For `C[C@H]1CC[C@H](c2ccccc2)S(=O)(=O)N1Cc1cc(F)c(C2(c3n[nH]c(=O)o3)CCC2)cc1F` [Example 144, 5-[1-[2,5-difluoro-4-[[(3S,6R)-3-methyl-1,1-dioxo-6-phenyl-thiazinan-2-yl]methyl]phenyl]cyclobutyl]-3H-1,3,4-oxadiazol-2-one], the 50% inhibitory concentration (IC50) was 9.4 nM.
